Patent US6716851B2, “Substituted 2-aryl-4-arylaminopyrimidines and analogs as activators or caspases and inducers of apoptosis and the use thereof” (Cytovia, Inc., priority 2000, dated 2004)

Columns and labels:
ZR-75-1 cells = assay: Caspase cascade activation (N-(Ac-DEVD)-N'-ethoxycarbonyl-R110 fluorogenic substrate) in ZR-75-1 cells; type: cell-based, Human; conditions: ZR-75-1, 48 h incubation; for EC50: Homo sapiens, caspase activation potency; for ZR Ratio 48 hr: caspase activity: ratio of net RFU of test compound to control
How it was run: (§1)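 Cells (0.65×10^6/ml) exposed 48 h at 37 °C to compound (0.016-10 μM final), then lysed with 14 μM DEVD-R110 substrate buffer (PIPES pH 7.2, DTT, lysolecithin) for 3 h at room temperature. Net fluorescence (485/530 nm) relative to control; EC50 by sigmoidal dose-response.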

T-47D cells = assay: Caspase cascade activation (N-(Ac-DEVD)-N'-ethoxycarbonyl-R110 fluorogenic substrate) in T-47D cells; type: cell-based, Human; conditions: 48 h incubation; for EC50: Homo sapiens, T47D, caspase activation potency, read-out: T47 EC50; for T47 Ratio 48 hr: caspase activity: ratio of net RFU of test compound to control
How it was run: as §1

| SMILES | EC50 (ZR-75-1 cells) | EC50 (T-47D cells) | ZR Ratio 48 hr (ZR-75-1 cells) | T47 Ratio 48 hr (T-47D cells) |
| --- | --- | --- | --- | --- |
| COc1cc(Nc2cc(C(F)(F)F)nc(-c3cc(Cl)nc(Cl)c3)n2)cc(OC)c1 [Example 163, 4-(3,5-Dimethoxyanilino)-2-(2,6-dichloro-4-pyridinyl)-6-trifluoromethylpyrimidine] | > 5000 nM | > 5000 nM | 1.6 | 1.1 |
| COc1ccc(Cl)c(Nc2cc(C(F)(F)F)nc(-c3cc(Cl)nc(Cl)c3)n2)c1 [Example 164, 4-(2-Chloro-5-methoxyanilino)-2-(2,6-dichloro-4-pyridinyl)-6-trifluoromethyl-pyrimidine] | > 5000 nM | > 5000 nM | 1.3 | 1.3 |
| COc1ccc(Nc2cc(C)nc(-c3ccccn3)n2)cc1OC [Example 176, 4-(3,4-Dimethoxyanilino)-6-methyl-2-(2-pyridinyl)pyrimidine] | > 5000 nM | 149 nM | 1.9 | 4.5 |
| COc1ccc(Cl)cc1Nc1cc(C(F)(F)F)nc(-c2cccnc2)n1 [Example 180, 4-(5-Chloro-2-methoxyanilino)-2-(3-pyridinyl)-6-trifluoromethylpyrimidine] | 698 nM | 637 nM | 8.7 | 15.1 |
| Oc1ccc(Cl)cc1Nc1cc(C(F)(F)F)nc(-c2cnccn2)n1 [Example 198, 4-(5-Chloro-2-hydroxyanilino)-2-(2-pyrazinyl)-6-trifluoromethylpyrimidine] | > 5000 nM | 419 nM | 1.8 | 3.3 |
| COc1ccc(OC)c(CCNc2cc(C(F)(F)F)nc(-c3cccnc3)n2)c1 [Example 200, 4-(2,5-Dimethoxyphenylethylamino)-2-(3-pyridinyl)-6-trifluoromethylpyrimidine] | > 5000 nM | > 5000 nM | 1.4 | 1.2 |
| COc1cc(C#N)c(Nc2cc(C(F)(F)F)nc(-c3cccnc3)n2)cc1OC [Example 203, 4-(2-Cyano-4,5-dimethoxyanilino)-2-(3-pyridinyl)-6-trifluoromethylpyrimidine] | 2630 nM | 843 nM | 3.4 | 10.7 |
| FC(F)(F)c1cc(Nc2cccc3[nH]ccc23)nc(-c2ccccn2)n1 [Example 212, 4-(Indol-4-ylamino)-2-(2-pyridinyl)-6-trifluoromethylpyrimidine] | 2780 nM | 3110 nM | 6.1 | 5.8 |
| Cc1cc2cc(Nc3cc(C(F)(F)F)nc(-c4cccnc4)n3)ccc2[nH]1 [Example 213, 4-(2-Methyl-indol-5-ylamino)-2-(3-pyridinyl)-6-trifluoromethylpyrimidine] | 1770 nM | 2680 nM | 9.9 | 14.1 |

Now those with a lower EC50 (ZR-75-1 cells), led by results:

| EC50 (ZR-75-1 cells) | EC50 (T-47D cells) | SMILES | ZR Ratio 48 hr (ZR-75-1 cells) | T47 Ratio 48 hr (T-47D cells) |
| --- | --- | --- | --- | --- |
| 583 nM | 802 nM | COc1ccc(Nc2cc(C(F)(F)F)nc(-c3cccnc3)n2)c(OC)n1 [Example 206, 4-(2,6-Dimethoxypyridin-3-ylamino)-2-(3-pyridinyl)-6-trifluoromethylpyrimidine] | 2.9 | 6.9 |
| 532 nM | 870 nM | FC(F)(F)c1cc(Nc2ccc3[nH]ccc3c2)nc(-c2cccnc2)n1 [Example 166, 4-(1 H-5-Indolyl-amino)-2-(3-pyridinyl)-6-trifluoromethyl-pyrimidine] | 3.3 | 8.0 |
| 360 nM | 272 nM | COc1ccc(Cl)cc1Nc1cc(C(F)(F)F)nc(-c2ccncc2)n1 [Example 162, 4-(5-Chloro-2-methoxyanilino)-2-(4-pyridinyl)-6-trifluoromethyl-pyrimidine] | 7.3 | 11.3 |
| 271 nM | 429 nM | Cc1ccc(O)cc1Nc1cc(C(F)(F)F)nc(-c2ccccn2)n1 [Example 188, 4-(5-Hydroxy-2-methylanilino)-2-(2-pyridinyl)-6-trifluoromethylpyrimidine] | 9.3 | 3.6 |
| 173 nM | 333 nM | Cc1cc(Nc2cc(C(F)(F)F)nc(-c3cccnc3)n2)c(C)cc1O [Example 201, 4-(2,5-Dimethyl-4-hydroxyanilino)-2-(3-pyridinyl)-6-trifluoromethylpyrimidine] | 4.8 | 15.7 |
| 86 nM | 79 nM | COc1cc(Nc2cc(C(F)(F)F)nc(-c3ccncc3)n2)cc(OC)c1 [Example 161, 4-(3,5-Dimethoxyanilino)-2-(4-pyridinyl)-6-trifluoromethyl-pyrimidine] | 5.1 | 10.7 |
| 75 nM | 82 nM | COc1cc(Nc2cc(C(F)(F)F)nc(-c3cnccn3)n2)cc(OC)c1 [Example 183, 4-(3,5-Dimethoxyanilino)-2-(2-pyrazinyl)-6-trifluoromethylpyrimidine] | 11.5 | 17.3 |
| 32 nM | 29 nM | COc1ccc(C)cc1Nc1cc(C(F)(F)F)nc(-c2ccccn2)n1 [Example 190, 4-(2-Methoxy-5-methylanilino)-2-(2-pyridinyl)-6-trifluoromethylpyrimidine] | 16.7 | 19.3 |
